These results are taken from patent US6376500B2, “Substituted 2-(4-piperidyl)-4(3H)-quinazolinones and 2-(4-piperidyl)-4(3H)-azaquinazolinones” (Syntex (U.S.A.) LLC, priority 1999, dated 2002).

Where a name gives a salt, the structure may show the parent alone.

Test system in one data set: not given
Assay: not given
Settings: not given
The term melting point denotes the temperature, or range, at which the solid turns liquid. For `Cl.Cl.O=c1[nH]c(C2CCN(CCc3c[nH]c4cc(F)ccc34)CC2)nc2ccc(F)cc12`, the melting point lay within 195 to 197 °C.

`Cl.O=c1[nH]c(C2CCN(CCc3c[nH]c4cc(F)ccc34)CC2)nc2ccccc12`: the melting point was 263 to 264 °C.

`Cl.O=c1[nH]c(C2CCN(CCc3c[nH]c4ccc(F)cc34)CC2)nc2ccccc12` had a melting point of 298 to 301 °C.

Regarding `Cl.Cl.O=c1[nH]c(C2CCN(CCc3c[nH]c4ccccc34)CC2)nc2cc(Cl)ccc12`, the melting point lay within 190 to 195 °C.

Regarding `COc1ccc2nc(C3CCN(CCc4c[nH]c5cc(F)ccc45)CC3)[nH]c(=O)c2c1.Cl`, the melting point is 230 to 232 °C.

On to `Cl.O=c1[nH]c(C2CCN(CCc3c[nH]c4ccccc34)CC2)nc2cc(F)ccc12`, for which the melting point fell in the range of 220 to 225 °C.

Compound `O=c1[nH]c(C2CCN(CCc3c[nH]c4ccccc34)CC2)nc2ccccc12` (as salt: hydrochloride) registered a melting point of 268 to 270 °C.

As to `Cl.Cl.O=c1[nH]c(C2CCN(CCc3c[nH]c4cc(F)ccc34)CC2)nc2cc(F)c(F)cc12`, the melting point is 215 to 217 °C.

For the compound `Cl.O=c1[nH]c(C2CCN(CCc3c[nH]c4ccc(F)cc34)CC2)nc2cc(Cl)ccc12`, the melting point is 300 °C (dec.).

On to `Cl.O=c1[nH]c(C2CCN(CCc3c[nH]c4cc(F)ccc34)CC2)nc2cc(Cl)ccc12`, for which the melting point was in the range of 256 to 266 °C.

`Cl.O=c1[nH]c(C2CCN(CCc3c[nH]c4cc(F)ccc34)CC2)nc2cc(F)ccc12`: the melting point is 205 to 209 °C.

Regarding `COc1cc2nc(C3CCN(CCc4c[nH]c5cc(F)ccc45)CC3)[nH]c(=O)c2cc1OC.Cl`, the melting point is 229 to 231 °C.

With `Cl.O=c1[nH]c(C2CCN(CCc3c[nH]c4cc(F)ccc34)CC2)nc2ccc(Cl)cc12`, the melting point was in the range of 292 to 294 °C.

Turning to `Cl.O=c1[nH]c(C2CCN(CCc3c[nH]c4ccc(F)cc34)CC2)nc2ccc(Cl)cc12`, the melting point is 290 °C (dec.).

Take `Cl.O=c1[nH]c(C2CCN(CCc3c[nH]c4ccc(F)cc34)CC2)nc2cc(F)ccc12`: the melting point was 283 °C (dec.).

In the next data set the test system is anesthetized dog. The experiment in a line: Dog in vivo blood and intraurethral pressure assay. The settings on record: i.v., anesthetized mongrel dogs. As for the experimental part: The following describes an in vivo assay for measuring the relative effect of test compounds on hypogastric nerve stimulation-induced increases in intraurethral pressure and phenylephrine-induced increases in diastolic blood pressure in anesthetized dog.
Mongrel dogs (10 to 20 kg) were fasted for 12 to 18 hours and anesthetized with […] (35 mg/kg, i.v.). An endotracheal tube was inserted and thereafter the lungs were mechanically ventilated with room air. The right femoral vein was isolated and cannulated with two polyethylene cannulae, one for the administration of a continuous infusion of phenobarbital sodium (5 to 10 mg/kg/hr) and the other for bolus administration of test substances. The right femoral artery was isolated and cannulated to the abdominal aorta with a fluid filled polyethylene cannula connected to an external pressure transducer for monitoring diastolic aortic pressure (DAP). The bladder was exposed via a ventral midline abdominal incision and emptied of urine through a 22 gauge needle. The bladder was cannulated through a stab incision with a water filled balloon catheter connected to an external pressure transducer for monitoring prostatic intraurethral pressure (IUP). The right hypogastric nerve (HGN) was carefully isolated and attached to a Dastre's electrode for nerve stimulation. […]
Consider `COc1cc2nc(N3CCN(C(=O)c4ccco4)CC3)nc(N)c2cc1OC` [prazosin], for which the “inhibition of HGN stimulation-induced increases in IUP and phenylephrine-induced increases in DAP” value was “inhibited increases in IUP and DAP in similar fashion”.
